# From patent US12570988B2, “Aptamers that bind thiamine analogs and derivatives” (MeiraGTx Gene Regulation Limited, priority 2020, dated 2026)
# Experiments:
# riboswitch 15D10 [1] = assay: Luciferase reporter with 15D10 riboswitch (Luci-15D10) in HEK 293 cells; assay type: cell-based, human; details: Homo sapiens, HEK293, 24 h, 50 μM; HEK 293 cells; Table 2; read-out: Fold increase in riboswitch 15D10-regulated luciferase expression, HEK
# Experimental: Transfection: 3.5×10^4 human embryonic kidney (HEK) 293 cells were plated in a 96-well flat bottom plate the day before transfection. Plasmid DNA (500 ng) was added to a tube or a 96-well U-bottom plate. […] Then, 50 μL of this diluted transfection reagent was added to the DNA, mixed, and incubated at RT for 20 min. Finally, 7 μL of this solution was added to a well of cells in the 96-well plate. Four hours after transfection, medium containing transfection solution was replaced by medium containing either TPP, fursultiamine, prosultiamine, bisbentiamine, beclotiamine hydrochloride, or sulbutiamine as aptamer inducers.
# Firefly luciferase assay of cultured cells: Twenty-four hours after media change, plates were removed from the incubator, and equilibrated to RT for several minutes on a lab bench, then aspirated. Glo-lysis buffer (Promega, 100 μL, RT) was added, and the plates allowed to remain at RT for at least 5 minutes. Then, the well contents were mixed by 50 μL trituration, and 20 μL of each sample was mixed with 20 μL of bright-glo reagent (Promega) that had been diluted to 10% in glo-lysis buffer. 96 wells were spaced on an opaque white 384-well plate. Following a 5 min incubation at RT, luminescence was measured using a Tecan machine with 500 ms read time. The luciferase activity was expressed as mean arbitrary light units (ALU)±S.D., and fold induction was calculated as the quotient of the luciferase activity obtained from cells with TPP or analog treatment divided by the luciferase activity obtained from cells without TPP or analog treatment.
# riboswitch 15D10 [2] = assay: Luciferase reporter with 15D10 riboswitch (Luci-15D10) in AML12 cells; assay type: cell-based, mouse; details: Mus musculus, AML12, 24 h, 50 μM; AML12 cells; Table 2; read-out: Fold increase in riboswitch 15D10-regulated luciferase expression, AML
SMILES,fold induction at 50 µM (riboswitch 15D10 [1]),fold induction at 50 µM (riboswitch 15D10 [2])
"C/C(=C(\CCO)SC(=O)c1ccc2c(c1)C(C)(C)CCC2(C)C)N(C=O)Cc1cnc(C)nc1N [Compound M50, (Z)—S-(2-(N-((4-amino-2-methylpyrimidin-5-yl)methyl)formamido)-5-hydroxypent-2-en-3-yl) 5,5,8,8-tetramethyl-5,6,7,8-tetrahydronaphthalene-2-carbothioate]",93.5,142
"C/C(=C(\CCO)SC(=O)c1ccc2ccccc2c1Br)N(C=O)Cc1cnc(C)nc1N [Compound M51, (Z)—S-(2-(N-((4-amino-2-methylpyrimidin-5-yl)methyl)formamido)-5-hydroxypent-2-en-3-yl) 1-bromonaphthalene-2-carbothioate]",392,189
"COc1ccc2cc(C(=O)S/C(CCO)=C(/C)N(C=O)Cc3cnc(C)nc3N)ccc2c1 [Compound M52, (Z)—S-(2-(N-((4-amino-2-methylpyrimidin-5-yl)methyl)formamido)-5-hydroxypent-2-en-3-yl) 6-methoxynaphthalene-2-carbothioate]",364,195
"C/C(=C(\CCO)SC(=O)C12CC3CC(CC(C3)C1)C2)N(C=O)Cc1cnc(C)nc1N [Compound M53, S—((Z)-2-(N-((4-amino-2-methylpyrimidin-5-yl)methyl)formamido)-5-hydroxypent-2-en-3-yl) (3r,5r,7r)-adamantane-1-carbothioate]",2.4,57
"C/C(=C(\CCO)SC(=O)C(C)c1ccccc1)N(C=O)Cc1cnc(C)nc1N (stereo not drawn) [Compound M54, (Z)—S-(2-(N-((4-amino-2-methylpyrimidin-5-yl)methyl)formamido)-5-hydroxypent-2-en-3-yl) 2-phenylpropanethioate]",3,13.9
"C/C(=C(\CCO)SC(=O)C(C)(C)Cc1ccccc1)N(C=O)Cc1cnc(C)nc1N [Compound M55, (Z)—S-(2-(N-((4-amino-2-methylpyrimidin-5-yl)methyl)formamido)-5-hydroxypent-2-en-3-yl) 2,2-dimethyl-3-phenylpropanethioate]",2.1,9
"C/C(=C(\CCO)SC(=O)C1(C)CCCCC1)N(C=O)Cc1cnc(C)nc1N [Compound M57, (Z)—S-(2-(N-((4-amino-2-methylpyrimidin-5-yl)methyl)formamido)-5-hydroxypent-2-en-3-yl) 1-methylcyclohexane-1-carbothioate]",1.2,24.4
"C/C(=C(\CCO)SC(=O)C(C)(c1ccccc1)c1ccccc1)N(C=O)Cc1cnc(C)nc1N [Compound M58, (Z)—S-(2-(N-((4-amino-2-methylpyrimidin-5-yl)methyl)formamido)-5-hydroxypent-2-en-3-yl) 2,2-diphenylpropanethioate]",1.1,1.5
"C/C(=C(\CCO)SC(=O)C(c1ccccc1)C(C)C)N(C=O)Cc1cnc(C)nc1N (stereo not drawn) [Compound M59, (Z)—S-(2-(N-((4-amino-2-methylpyrimidin-5-yl)methyl)formamido)-5-hydroxypent-2-en-3-yl) 3-methyl-2-phenylbutanethioate]",1.1,1
"C/C(=C(\CCO)SC(=O)C1(C)Cc2ccccc2C1)N(C=O)Cc1cnc(C)nc1N [Compound M62, (Z)—S-(2-(N-((4-amino-2-methylpyrimidin-5-yl)methyl)formamido)-5-hydroxypent-2-en-3-yl) 2-methyl-2,3-dihydro-1H-indene-2-carbothioate]",49,110
"C/C(=C(\CCO)SC(=O)C(C)(C)c1ccc2ccccc2c1)N(C=O)Cc1cnc(C)nc1N [Compound M63, (Z)—S-(2-(N-((4-amino-2-methylpyrimidin-5-yl)methyl)formamido)-5-hydroxypent-2-en-3-yl) 2-methyl-2-(naphthalen-2-yl)propanethioate]",1.7,19
"C/C(=C(\CCO)SC(=O)C(c1ccccc1)c1ccccc1)N(C=O)Cc1cnc(C)nc1N [Compound M64, (Z)—S-(2-(N-((4-amino-2-methylpyrimidin-5-yl)methyl)formamido)-5-hydroxypent-2-en-3-yl) 2,2-diphenylethanethioate]",2,3.9
"C/C(=C(\CCO)SC(=O)C1(c2cccc(Br)c2)CC1)N(C=O)Cc1cnc(C)nc1N [Compound M65, (Z)—S-(2-(N-((4-amino-2-methylpyrimidin-5-yl)methyl)formamido)-5-hydroxypent-2-en-3-yl) 1-(3-bromophenyl)cyclopropane-1-carbothioate]",3.2,67.1
"C/C(=C(\CCO)SC(=O)c1c(Cl)cc(-c2ccccc2)cc1Cl)N(C=O)Cc1cnc(C)nc1N [Compound M66, (Z)—S-(2-(N-((4-amino-2-methylpyrimidin-5-yl)methyl)formamido)-5-hydroxypent-2-en-3-yl) 3,5-dichloro-[1,1′-biphenyl]-4-carbothioate]",1.1,0.4
"C/C(=C(\CCO)SC(=O)c1c(C)cc(C(C)(C)C)cc1C)N(C=O)Cc1cnc(C)nc1N [Compound M67, (Z)—S-(2-(N-((4-amino-2-methylpyrimidin-5-yl)methyl)formamido)-5-hydroxypent-2-en-3-yl) 4-(tert-butyl)-2,6-dimethylbenzothioate]",2.1,0.9
"C/C(=C(\CCO)SC(=O)c1ccc(-c2ccccc2)cc1Cl)N(C=O)Cc1cnc(C)nc1N [Compound M68, (Z)—S-(2-(N-((4-amino-2-methylpyrimidin-5-yl)methyl)formamido)-5-hydroxypent-2-en-3-yl) 3-chloro-[1,1′-biphenyl]-4-carbothioate]",303,209
"C/C(=C(\CCO)SC(=O)c1cc(C(C)(C)C)cc(C(C)(C)C)c1)N(C=O)Cc1cnc(C)nc1N [Compound M70, (Z)—S-(2-(N-((4-amino-2-methylpyrimidin-5-yl)methyl)formamido)-5-hydroxypent-2-en-3-yl) 3,5-di-tert-butylbenzothioate]",51,236
"C/C(=C(\CCO)SC(=O)c1cccc(-c2ccccc2)c1)N(C=O)Cc1cnc(C)nc1N [Compound M72, (Z)—S-(2-(N-((4-amino-2-methylpyrimidin-5-yl)methyl)formamido)-5-hydroxypent-2-en-3-yl) [1,1′-biphenyl]-3-carbothioate]",236,295
"C/C(=C(\CCO)SC(=O)c1ccc(Oc2ccccc2)cc1)N(C=O)Cc1cnc(C)nc1N [Compound M73, (Z)—S-(2-(N-((4-amino-2-methylpyrimidin-5-yl)methyl)formamido)-5-hydroxypent-2-en-3-yl) 4-phenoxybenzothioate]",205,200
"C/C(=C(\CCO)SC(=O)c1ccc2oc3ccccc3c2c1)N(C=O)Cc1cnc(C)nc1N [Compound M76, (Z)—S-(2-(N-((4-amino-2-methylpyrimidin-5-yl)methyl)formamido)-5-hydroxypent-2-en-3-yl) dibenzo[b,d]furan-2-carbothioate]",60.7,134
"C/C(=C(\CCO)SC(=O)c1ccc2sccc2c1)N(C=O)Cc1cnc(C)nc1N [Compound M79, (Z)—S-(2-(N-((4-amino-2-methylpyrimidin-5-yl)methyl)formamido)-5-hydroxypent-2-en-3-yl) benzo[b]thiophene-5-carbothioate]",353,358
"COCCOc1ccc(C(=O)S/C(CCO)=C(/C)N(C=O)Cc2cnc(C)nc2N)cc1 [Compound M82, (Z)—S-(2-(N-((4-amino-2-methylpyrimidin-5-yl)methyl)formamido)-5-hydroxypent-2-en-3-yl) 4-(2-methoxyethoxy)benzothioate]",89.2,73.9
"C/C(=C(\CCO)SC(=O)/C=C/c1ccc2ccccc2c1)N(C=O)Cc1cnc(C)nc1N [Compound M88, S—((Z)-2-(N-((4-amino-2-methylpyrimidin-5-yl)methyl)formamido)-5-hydroxypent-2-en-3-yl) (E)-3-(naphthalen-2-yl)prop-2-enethioate]",216,355
"C/C(=C(\CCO)SCOC(=O)c1cccc2ccccc12)N(C=O)Cc1cnc(C)nc1N [Compound M97, (Z)-((2-(N-((4-amino-2-methylpyrimidin-5-yl)methyl)formamido)-5-hydroxypent-2-en-3-yl)thio)methyl 1-naphthoate]",299,126
"C/C(=C(\CCO)SCOC(=O)c1cc2ccccc2c2ccccc12)N(C=O)Cc1cnc(C)nc1N [Compound M98, (Z)-((2-(N-((4-amino-2-methylpyrimidin-5-yl)methyl)formamido)-5-hydroxypent-2-en-3-yl)thio)methyl phenanthrene-9-carboxylate]",13.6,57.7
